Several values for one entry are separate records, joined by “and”; a condition that tells them apart may be missing. Equal entries are not always repeated.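 Where inhibition never reached the appropriate level, the endpoint shown equals the highest concentration tested. Otherwise, values were interpolated linearly from a five-concentration, 48-hour dose response in 96-well plates. GI50: concentration for 50% inhibition of growth. TGI is the concentration that stops growth completely.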
Columns and labels:
Assay in all cases: DTP human tumour cell line panel, 48 h
NCI/ADR-RES ovarian = system: NCI/ADR-RES ovarian
UACC-62 melanoma = system: UACC-62 melanoma
DU-145 prostate = system: DU-145 prostate
MOLT-4 leukemia = system: MOLT-4 leukemia
K-562 leukemia = system: K-562 leukemia
NCI-H23 lung = system: NCI-H23 lung
SK-MEL-28 melanoma = system: SK-MEL-28 melanoma
OVCAR-8 ovarian = system: OVCAR-8 ovarian
HOP-62 NSCLC = system: HOP-62 NSCLC
CAKI-1 renal = system: CAKI-1 renal

O=C1c2ccccc2-c2c1c1c(O)cccc1n2Cc1ccccn1
GI50 (NCI/ADR-RES ovarian): 43.2 µM
TGI (NCI/ADR-RES ovarian): > 100 µM
GI50 (UACC-62 melanoma): 20.5 µM
TGI (UACC-62 melanoma): > 100 µM
GI50 (DU-145 prostate): 36.5 µM
TGI (DU-145 prostate): > 100 µM
GI50 (MOLT-4 leukemia): 91.4 µM
TGI (MOLT-4 leukemia): > 100 µM
GI50 (K-562 leukemia): 18.3 µM
TGI (K-562 leukemia): 79 µM
GI50 (NCI-H23 lung): 44.1 µM
TGI (NCI-H23 lung): > 100 µM
GI50 (SK-MEL-28 melanoma): > 100 µM
TGI (SK-MEL-28 melanoma): > 100 µM
GI50 (OVCAR-8 ovarian): 74 µM
TGI (OVCAR-8 ovarian): > 100 µM
GI50 (HOP-62 NSCLC): 84.9 µM
TGI (HOP-62 NSCLC): > 100 µM
GI50 (CAKI-1 renal): 20.4 µM
TGI (CAKI-1 renal): > 100 µM

CCn1c(-c2nonc2N)nc2c(C#CC(C)(C)O)ncc(OC[C@H]3CCCNC3)c21
GI50 (NCI/ADR-RES ovarian): > 100 µM
TGI (NCI/ADR-RES ovarian): > 100 µM
GI50 (UACC-62 melanoma): 12.9 µM
TGI (UACC-62 melanoma): 28.2 µM
GI50 (DU-145 prostate): 12.9 µM
TGI (DU-145 prostate): 73.8 µM
GI50 (MOLT-4 leukemia): 0.23 µM
TGI (MOLT-4 leukemia): 31.5 µM
GI50 (K-562 leukemia): 11.4 µM
TGI (K-562 leukemia): > 89.2 µM
GI50 (NCI-H23 lung): 23.5 µM
TGI (NCI-H23 lung): > 96 µM
GI50 (SK-MEL-28 melanoma): 11.7 µM
TGI (SK-MEL-28 melanoma): 27.1 µM
GI50 (OVCAR-8 ovarian): 16.1 µM
TGI (OVCAR-8 ovarian): 82.2 µM
GI50 (HOP-62 NSCLC): 23.3 µM
TGI (HOP-62 NSCLC): 72.7 µM
GI50 (CAKI-1 renal): 32.7 µM
TGI (CAKI-1 renal): > 100 µM

COc1cc2nccc(Oc3ccc(NC(=O)Nc4cc(C)on4)c(Cl)c3)c2cc1OC
GI50 (NCI/ADR-RES ovarian): 3.08 µM and 3.53 µM
TGI (NCI/ADR-RES ovarian): > 100 µM
GI50 (UACC-62 melanoma): 2.12 µM and 1.82 µM
TGI (UACC-62 melanoma): 16.4 µM and > 10 µM
GI50 (DU-145 prostate): 4.31 µM and 6.6 µM
TGI (DU-145 prostate): > 77.8 µM
GI50 (MOLT-4 leukemia): 2.12 µM and 1.86 µM
TGI (MOLT-4 leukemia): 44.1 µM and > 10 µM
GI50 (K-562 leukemia): 0.0349 µM and 0.0609 µM
TGI (K-562 leukemia): > 100 µM
GI50 (NCI-H23 lung): 2.97 µM and 3.07 µM
TGI (NCI-H23 lung): > 100 µM
GI50 (SK-MEL-28 melanoma): 3.76 µM and 4.31 µM
TGI (SK-MEL-28 melanoma): 19.3 µM and > 10 µM
GI50 (OVCAR-8 ovarian): 3.6 µM and 4.67 µM
TGI (OVCAR-8 ovarian): > 100 µM
GI50 (HOP-62 NSCLC): 5.58 µM and > 10 µM
TGI (HOP-62 NSCLC): > 100 µM
GI50 (CAKI-1 renal): 2.58 µM and 2.25 µM
TGI (CAKI-1 renal): 7.67 µM and > 10 µM

Oc1c(Cl)cc(Cl)cc1C(c1cc(Cl)cc(Cl)c1O)C(Cl)(Cl)Cl
GI50 (NCI/ADR-RES ovarian): 1.99 µM
TGI (NCI/ADR-RES ovarian): 7.25 µM
GI50 (UACC-62 melanoma): 0.73 µM
TGI (UACC-62 melanoma): 10.6 µM
GI50 (DU-145 prostate): 4.12 µM
TGI (DU-145 prostate): 15.7 µM
GI50 (MOLT-4 leukemia): 3.67 µM
TGI (MOLT-4 leukemia): 10.4 µM
GI50 (K-562 leukemia): 1.1 µM
TGI (K-562 leukemia): 20.4 µM
GI50 (NCI-H23 lung): 1.45 µM
TGI (NCI-H23 lung): 5.15 µM
GI50 (SK-MEL-28 melanoma): 4.18 µM
TGI (SK-MEL-28 melanoma): 17.8 µM
GI50 (OVCAR-8 ovarian): 3.12 µM
TGI (OVCAR-8 ovarian): 15.7 µM
GI50 (HOP-62 NSCLC): 3.77 µM
TGI (HOP-62 NSCLC): 15 µM
GI50 (CAKI-1 renal): 0.472 µM
TGI (CAKI-1 renal): 2.06 µM

O=NNc1ccc(Sc2ccc(NN=O)cn2)nc1
TGI (NCI/ADR-RES ovarian): > 100 µM
TGI (UACC-62 melanoma): > 100 µM
TGI (DU-145 prostate): > 100 µM
TGI (MOLT-4 leukemia): > 100 µM
TGI (K-562 leukemia): > 100 µM
TGI (NCI-H23 lung): > 100 µM
TGI (SK-MEL-28 melanoma): > 100 µM
TGI (OVCAR-8 ovarian): > 100 µM
TGI (HOP-62 NSCLC): > 100 µM
TGI (CAKI-1 renal): > 100 µM

CN(CC(=O)Nc1nc2ccccc2[nH]1)S(=O)(=O)c1ccc(Cl)cc1
GI50 (NCI/ADR-RES ovarian): > 100 µM
TGI (NCI/ADR-RES ovarian): > 100 µM
GI50 (UACC-62 melanoma): > 100 µM
TGI (UACC-62 melanoma): > 100 µM
GI50 (DU-145 prostate): > 100 µM
TGI (DU-145 prostate): > 100 µM
GI50 (MOLT-4 leukemia): > 100 µM
TGI (MOLT-4 leukemia): > 100 µM
GI50 (K-562 leukemia): > 100 µM
TGI (K-562 leukemia): > 100 µM
GI50 (NCI-H23 lung): > 100 µM
TGI (NCI-H23 lung): > 100 µM
GI50 (SK-MEL-28 melanoma): > 100 µM
TGI (SK-MEL-28 melanoma): > 100 µM
GI50 (OVCAR-8 ovarian): 95.2 µM
TGI (OVCAR-8 ovarian): > 100 µM
GI50 (HOP-62 NSCLC): > 100 µM
TGI (HOP-62 NSCLC): > 100 µM
GI50 (CAKI-1 renal): > 100 µM
TGI (CAKI-1 renal): > 100 µM

OCCNc1nc(Nc2ccc(Cl)c(Cl)c2)nc2ccccc12
GI50 (NCI/ADR-RES ovarian): 4.91 µM
TGI (NCI/ADR-RES ovarian): 20 µM
GI50 (UACC-62 melanoma): 10.9 µM
TGI (UACC-62 melanoma): 23.5 µM
GI50 (DU-145 prostate): 11 µM
TGI (DU-145 prostate): 22.9 µM
GI50 (MOLT-4 leukemia): 1.87 µM
TGI (MOLT-4 leukemia): 13.2 µM
GI50 (K-562 leukemia): 3.09 µM
TGI (K-562 leukemia): 10.8 µM
GI50 (NCI-H23 lung): 10.3 µM
TGI (NCI-H23 lung): 25.1 µM
GI50 (SK-MEL-28 melanoma): 6.38 µM
TGI (SK-MEL-28 melanoma): 20.7 µM
GI50 (OVCAR-8 ovarian): 4.79 µM
TGI (OVCAR-8 ovarian): 17.6 µM
GI50 (HOP-62 NSCLC): 5.39 µM
TGI (HOP-62 NSCLC): 19.5 µM
GI50 (CAKI-1 renal): 4.66 µM
TGI (CAKI-1 renal): 18.2 µM

CC([C@H]1CCC2C3CCC4C[C@@H](N)CC[C@]4(C)C3CC[C@@]21C)N(C)C (stereo not given in full)
GI50 (NCI/ADR-RES ovarian): 15.1 µM
TGI (NCI/ADR-RES ovarian): 48.7 µM
GI50 (UACC-62 melanoma): 2.36 µM
TGI (UACC-62 melanoma): 5.67 µM
GI50 (DU-145 prostate): 14.3 µM
TGI (DU-145 prostate): > 48.4 µM
GI50 (MOLT-4 leukemia): 5.02 µM
TGI (MOLT-4 leukemia): 17.2 µM
GI50 (K-562 leukemia): 2.27 µM
TGI (K-562 leukemia): 7.34 µM
GI50 (NCI-H23 lung): 13.8 µM
TGI (NCI-H23 lung): 37.2 µM
GI50 (SK-MEL-28 melanoma): 1.91 µM
TGI (SK-MEL-28 melanoma): 3.66 µM
GI50 (OVCAR-8 ovarian): 15.7 µM
TGI (OVCAR-8 ovarian): > 53.6 µM
GI50 (HOP-62 NSCLC): 6.1 µM
TGI (HOP-62 NSCLC): 12 µM
GI50 (CAKI-1 renal): 5.67 µM
TGI (CAKI-1 renal): 18.1 µM

O=C1OC(=O)C2CCCC3CCCC1C32 (stereo not given)
TGI (NCI/ADR-RES ovarian): > 100 µM
TGI (UACC-62 melanoma): > 100 µM
TGI (DU-145 prostate): > 100 µM
TGI (MOLT-4 leukemia): > 100 µM
TGI (K-562 leukemia): > 100 µM
TGI (NCI-H23 lung): > 100 µM
TGI (SK-MEL-28 melanoma): > 100 µM
TGI (OVCAR-8 ovarian): > 100 µM
TGI (HOP-62 NSCLC): > 100 µM
TGI (CAKI-1 renal): > 100 µM

CN1CCN(c2ccc(NC(=O)c3cncnc3Nc3ccc(OCc4ccccn4)c(Cl)c3)cc2)CC1
GI50 (NCI/ADR-RES ovarian): 6.28 µM
TGI (NCI/ADR-RES ovarian): 17.1 µM
GI50 (UACC-62 melanoma): 0.695 µM
TGI (UACC-62 melanoma): 1.42 µM
GI50 (DU-145 prostate): 4.28 µM
TGI (DU-145 prostate): 8.8 µM
GI50 (MOLT-4 leukemia): 1.64 µM
TGI (MOLT-4 leukemia): 9.42 µM
GI50 (K-562 leukemia): 0.778 µM
TGI (K-562 leukemia): 2.28 µM
GI50 (NCI-H23 lung): 5.07 µM
TGI (NCI-H23 lung): 11.5 µM
GI50 (SK-MEL-28 melanoma): 0.749 µM
TGI (SK-MEL-28 melanoma): 1.64 µM
GI50 (OVCAR-8 ovarian): 5.4 µM
TGI (OVCAR-8 ovarian): 15.3 µM
GI50 (HOP-62 NSCLC): 4.31 µM
TGI (HOP-62 NSCLC): 10.7 µM
GI50 (CAKI-1 renal): 4.78 µM
TGI (CAKI-1 renal): 11.7 µM

— PubChem BioAssay (NCI)
